Among the data in PMC9191221 (Iranian Journal of Pharmaceutical Research : IJPR, 2022) are IC50 values, retold here.

“And” between values parts separate entries of the source, which are not always exact repeats. Identical values can stand only once.

The assay addresses EGFR^T790M (Homo sapiens, UniProt P00533, T790M). Put plainly: EGFR-TK assay kit / ADP-Glo kinase assay. It is filed as biochemical. The following applies: tested in triplicate. In general terms: ADP-Glo first removes unused ATP, then detects ADP through luciferase.

Sequence of EGFR^T790M (P00533 25-1210 T790M): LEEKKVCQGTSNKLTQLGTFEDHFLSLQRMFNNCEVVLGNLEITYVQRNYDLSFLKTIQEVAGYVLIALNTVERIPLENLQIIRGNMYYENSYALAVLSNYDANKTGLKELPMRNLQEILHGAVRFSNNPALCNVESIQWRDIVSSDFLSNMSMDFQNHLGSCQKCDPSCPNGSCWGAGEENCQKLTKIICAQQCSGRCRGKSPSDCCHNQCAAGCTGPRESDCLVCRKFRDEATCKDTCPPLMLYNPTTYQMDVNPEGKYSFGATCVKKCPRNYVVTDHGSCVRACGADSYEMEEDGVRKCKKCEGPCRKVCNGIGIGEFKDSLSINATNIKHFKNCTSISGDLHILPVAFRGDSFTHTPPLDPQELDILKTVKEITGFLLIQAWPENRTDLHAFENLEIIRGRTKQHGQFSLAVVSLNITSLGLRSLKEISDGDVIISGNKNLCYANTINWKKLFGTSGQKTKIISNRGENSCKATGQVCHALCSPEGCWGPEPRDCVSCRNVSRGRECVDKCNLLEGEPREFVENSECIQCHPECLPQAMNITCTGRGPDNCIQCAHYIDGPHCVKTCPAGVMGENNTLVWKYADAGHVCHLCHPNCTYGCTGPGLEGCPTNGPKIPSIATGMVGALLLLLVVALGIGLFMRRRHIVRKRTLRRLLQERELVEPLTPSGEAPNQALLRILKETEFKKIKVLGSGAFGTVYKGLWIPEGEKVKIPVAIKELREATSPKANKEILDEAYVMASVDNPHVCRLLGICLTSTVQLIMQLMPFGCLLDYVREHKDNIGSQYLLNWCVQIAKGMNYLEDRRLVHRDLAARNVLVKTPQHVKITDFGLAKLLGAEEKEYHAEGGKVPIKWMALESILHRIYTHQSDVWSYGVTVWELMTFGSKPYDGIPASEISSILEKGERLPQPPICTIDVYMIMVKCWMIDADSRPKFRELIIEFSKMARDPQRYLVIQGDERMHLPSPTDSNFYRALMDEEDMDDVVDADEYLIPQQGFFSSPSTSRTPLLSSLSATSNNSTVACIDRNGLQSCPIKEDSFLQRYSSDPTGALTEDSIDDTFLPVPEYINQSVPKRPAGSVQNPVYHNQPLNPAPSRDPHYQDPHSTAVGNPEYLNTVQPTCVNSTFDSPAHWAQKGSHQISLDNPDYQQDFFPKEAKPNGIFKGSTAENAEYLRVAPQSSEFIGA

As to `O=c1nc(NCc2ccccc2Cl)[nH]c2ccc(Oc3ccccc3)cc12` [Compound 8b, 2-((2-Chlorobenzyl)amino)-6-phenoxyquinazolin-4(1H)-one], the IC50 is 0.37 nM and 1.37 nM.

The IC50 is the concentration that gives 50% inhibition. Lower therefore signals higher potency.
